Assay results from PMC9781104 (Pharmaceutics, 2022).
Where two headings read alike, the source gives them in different places.

Assays:
CYP3A4 = test system: CYP3A4; set-up: method as in ref [17, 18] of supplement; settings: ref [17, 18] of supplement, cited from earlier work; for Km: literature value adapted with fu,inc
[1] = Pharmacokinetic panel study in CYP2D6-genotyped healthy female volunteers (observed plasma AUClast/Cmax, DGI and DD(G)I with clarithromycin or paroxetine); assay type: in vivo, human; settings: for order of AUClast across CYP2D6 phenotypes: DGI setting
Protocol: Clinical data from a recently performed pharmacokinetic panel study (EudraCT-Nr.: 2009-014531-20, ClinicalTrails.gov: NCT01289756) were used for PBPK model development. The study protocol, patient information sheet and consent form were approved by the Ethics Committee of the University of Tübingen and the German Federal Institute for Drugs and Medical Devices (BfArM). All study participants had signed an informed consent form.
The study was conducted in 20 healthy, Caucasian, premenopausal female volunteers that were genotyped for CYP2D6 polymorphisms and subsequently assigned to predicted phenotypes according to the respective CYP2D6 activity score (AS) as depicted in Table 1 [17, 18]. […] After a wash-out phase of at least three weeks, clomiphene was administered concomitantly with the strong CYP3A4 inhibitor clarithromycin [19]. Here, the participants received 500 mg clarithromycin twice daily for four days. On day 5, a single dose of clomiphene citrate was administered together with 500 mg clarithromycin. Finally, in the third period, all subjects received clomiphene citrate together with the strong CYP2D6 inhibitor paroxetine. Here, 40 mg paroxetine was administered once daily for two days. On day 3, participants received a single dose of clomiphene citrate concomitantly with 40 mg paroxetine (Figure 1).
For the evaluation of DGI and DD(G)I effects, the predicted AUClast and Cmax effect ratios were calculated according to Equations (4) and (5) and compared with the corresponding observed values. Here, model performance was assessed using the prediction acceptance limits proposed by Guest et al. with 1.25-fold variability. (4) AUClast, AS=i ratio=AUClast, effect, AS=i/AUClast, control (5) Cmax, AS=i ratio=Cmax, effect, AS=i/Cmax, control
For the calculation of DGI ratios, AUClast, effect, AS=i and Cmax, effect, AS=i represent the AUClast and Cmax for CYP2D6 AS = i, while AUClast, control and Cmax, control are the AUClast and Cmax values for the NM (AS = 2) population. For the calculation of DD(G)I ratios, AUClast, effect, AS=i and Cmax, effect, AS=i represent the AUClast and Cmax for the CYP2D6 AS = i in the DD(G)I scenario with clarithromycin or paroxetine, while AUClast, control and Cmax, control are the AUClast and Cmax values for the CYP2D6 AS = i without the concomitant use of perpetrator drugs.

[2] = set-up: method as in PMID 22108178; settings: healthy female volunteers; cited from earlier work
CYP2D6 [3] = assay: In vitro scaling factors from CYP2D6 activity score-specific in vitro metabolite formation rates; assay type: in vitro ADME, human
Text: Here, kcat, AS=i represents the catalytic rate constant for CYP2D6 AS = i, kcat, AS=2 is the catalytic rate constant for the NM population and IVSFi is the corresponding in vitro scaling factor (IVSF).
S2. Drug-Gene-Interaction (DGI) Modeling
S2.1. CYP2D6 in vitro Scaling Factors
The estimated CYP2D6 kcat values for the NM population were extrapolated to the intermediate metabolizers (IM) (AS=0.5, AS=0.75 and AS=1) and ultrarapid metabolizers (UM) populations according to Equation 1 in the main manuscript, using in vitro scaling factors (IVSFs). Determination of IVSFs were based on AS-specific in vitro metabolite formation rates relative to the corresponding formation rate in NM as a reference. The respective IVSFs for each CYP2D6-dependent pathway are depicted in Table S8. Measured in vitro data for (E)-4-OH-Clom and (E)-4-OH-DE-Clom AS-specific formation rates were available, while mean values were assumed for the remaining CYP2D6-dependent metabolic pathways.
Table S8. Employed in vitro scaling factors (IVSFs) for individual CYP2D6 activity scores. […]

[4] = set-up: method as in ref [35] of supplement; settings: ref [35] of supplement; cited from earlier work
CYP2D6 [5] = settings: cited from earlier work; for Km: literature value adapted with fu,inc
[6] = cited from earlier work; for Solubility (pH 6.5): ref [30]; for Solubility (pH 6.5) / pKa (base), literature: [34]; for Solubility (pH 6.5) / pKa (base), literature / pKa (acid): [38] of supplement (ChemAxon Chemicalize); for pKa (base), literature: ref [23], [30]; for pKa (acid): ref [34]
estrogen receptor = settings: read-out: half-maximal inhibitory concentration towards the estrogen receptor; cited from earlier work
CYP2D6 [7] = assay: PBPK model: CYP2D6-mediated metabolism (Km, kcat, contribution); set-up: species or system human; settings: Assumed equal to Km of CYP2D6-mediated hydroxylation of (E)-4-OH-Clom, adapted with fu,inc=0.243; read-out: CYP2D6 Km → undef., assumed
Text: An additional biotransformation process via CYP2B6 to (E)-4-OH-Clom was implemented to cover the fraction of CYP2D6-independent metabolism observed in the PM population and in CYP2D6 DD(G)I scenarios.
(E)-4-OH-Clom is metabolized via CYP2D6 to (Z)-3,4-dihydroxyclomiphene (implemented as an undefined metabolite), via an unspecific hepatic clearance mechanism and via CYP3A4 to the second active metabolite (E)-4-OH-DE-Clom. (E)-4-OH-DE-Clom is also formed via CYP2D6 metabolism of (E)-DE-Clom, which in turn, represents the main route of elimination of (E)-DE-Clom. Furthermore, (E)-DE-Clom is metabolized to minor extents through CYP2D6 and CYP3A4 to (E)-N,N-didesethylclomiphene (implemented as an undefined metabolite). The metabolism of (E)-4-OH-DE-Clom has not been extensively investigated, yet. According to work by Kröner, (E)-4-OH-DE-Clom is presumably metabolized through a CYP-mediated pathway to (Z)-3,4-dihydroxydesethyl-clomiphene. […]
This was integrated by accounting for the 80:20 metabolic ratio of CYP3A4 to CYP2D6 reported by Mazzarino and coworkers. […] As previously described, the ratio of the corresponding measured in vitro metabolic enzyme activities was used dur-ing the parameter estimation step for optimization of kcat values (kcat, CYP3A4 = 0.13 * kcat, CYP2D6)

[8] = cited from earlier work
[9] = ref [19] ((E)-Clom, (E)-4-OH-Clom), [17, 18] ((E)-DE-Clom) of supplement, read-out: CYP2D6 Km → undef.

| Compound | order of AUClast across CYP2D6 phenotypes [1] | observed AUClast effect ratio in clarithromycin DDGI scenario vs control ([1]; PM) | maximum plasma concentration (Cmax) in CYP2D6 PM compared with NM [2] | IVSF, CYP2D6-mediated pathway → undef. (CYP2D6 [3]; AS=0, mean value assumed) | IVSF, CYP2D6-mediated pathway → undef. (CYP2D6 [3]; AS=0.5, mean value assumed) | IVSF, CYP2D6-mediated pathway → undef. (CYP2D6 [3]; AS=0.75, mean value assumed) | IVSF, CYP2D6-mediated pathway → undef. (CYP2D6 [3]; AS=1, mean value assumed) | IVSF, CYP2D6-mediated pathway → undef. (CYP2D6 [3]; AS=2 (NM, reference)) | IVSF, CYP2D6-mediated pathway → undef. (CYP2D6 [3]; AS=3, mean value assumed) | Km (CYP2D6 [5]; [9]) | Solubility (pH 6.5) [6] | pKa (base), literature [6] | pKa (acid) [6] | IC50 (estrogen receptor) | also measured |
| --- | --- | --- | --- | --- | --- | --- | --- | --- | --- | --- | --- | --- | --- | --- | --- |
| CCN(CC)CCOc1ccc(/C(=C(/Cl)c2ccccc2)c2ccc(O)cc2)cc1 [(E)-4-OH-Clom, (E)-4-hydroxyclomiphene] | AUCIM (AS = 0.5) > AUCNM > AUCUM > AUCPM | ~ 1.3 fold | approximately ten-fold lower | 0 | 0.17 | 0.23 | 0.51 | 1 | 1.41 | 3.6 µM | 0.06 mg/ml | 9.41 | 8.64 | 2.2 nM | Km (CYP3A4; read-out: CYP3A4 Km → (E)-4-OH-DE-Clom): 3.4 µM; Cmax change due to inhibition of CYP2D6 by paroxetine ([1]; all phenotypes except for PM): decreased; AUClast change during CYP3A4 inhibition ([1]; clarithromycin, all phenotypes): slight increase; fu (fraction unbound), literature [4]: 0.6% |
| CCNCCOc1ccc(/C(=C(/Cl)c2ccccc2)c2ccc(O)cc2)cc1 [(E)-4-OH-DE-Clom, (E)-4-hydroxy-N-desethylclomiphene] | AUCIM (AS = 0.5) > AUCNM > AUCUM > AUCPM | ~ 0.6 fold | approximately ten-fold lower | 0 | 0.17 | 0.23 | 0.51 | 1 | 1.41 | – | 0.17 mg/ml | 9.65 | 8.69 | 0.9 nM | observed DGI AUClast effect ratio ([1]; IM (AS = 1) vs NM): ~ 0.8; Km (CYP2D6 [7]): 8.86 µM; logP (lipophilicity), literature ([6]; ref [23, 25-27], [30, 31], [25, 34], [38] of supplement): 4.47 |
| CCNCCOc1ccc(/C(=C(/Cl)c2ccccc2)c2ccccc2)cc1 [(E)-DE-Clom, (E)-N-desethylclomiphene] | – | – | – | 0 | 0.17 | 0.23 | 0.51 | 1 | 1.41 | 0.97 µM | 0.46 mg/ml | 9.59 | – | – | ratio kcat,CYP3A4 / kcat,CYP2D6 for metabolism to (E)-N,N-didesethylclomiphene (CYP3A4; from measured in vitro metabolic enzyme activities): 0.13; Km (CYP3A4; read-out: CYP3A4 Km → undef.): 0.97 µM; AUClast reduction during concomitant clarithromycin ([1]; PM): ~ 34%; IVSF, CYP2D6-mediated pathway → (E)-4-OH-DE-Clom (CYP2D6 [3]; AS=0, relative to NM, from in vitro formation rates, supplement ref [17]): 0; IVSF, CYP2D6-mediated pathway → (E)-4-OH-DE-Clom (CYP2D6 [3]; AS=0.5, relative to NM, from in vitro formation rates, supplement ref [17]): 0.16; IVSF, CYP2D6-mediated pathway → (E)-4-OH-DE-Clom (CYP2D6 [3]; AS=0.75, relative to NM, from in vitro formation rates, supplement ref [17]): 0.19; IVSF, CYP2D6-mediated pathway → (E)-4-OH-DE-Clom (CYP2D6 [3]; AS=1, relative to NM, from in vitro formation rates, supplement ref [17]): 0.44; IVSF, CYP2D6-mediated pathway → (E)-4-OH-DE-Clom (CYP2D6 [3]; AS=2 (NM, reference)): 1; IVSF, CYP2D6-mediated pathway → (E)-4-OH-DE-Clom (CYP2D6 [3]; AS=3, relative to NM, from in vitro formation rates, supplement ref [17]): 1.30; CYP2D6 contribution to the formation of the desethyl metabolite (CYP2D6 [5]; as incorporated in the model): ~ 20%; Km (CYP2D6 [5]; ref [17, 18] of supplement, read-out: CYP2D6 Km → (E)-4-OH-DE-Clom): 0.49 µM |
| CCN(CC)CCOc1ccc(C(=C(Cl)c2ccccc2)c2ccccc2)cc1 [clomiphene, Clomiphene] | – | – | – | – | – | – | – | – | – | – | – | – | – | – | response to clomiphene therapy ([8]; CYP2D6 IM): all CYP2D6 intermediate metabolizers (IM) responded; non-responders to clomiphene therapy ([8]; CYP2D6 NM): 30%; women who do not respond during clomiphene therapy [8]: 8–54% |
